Measurements as given in PMC10587743 (RSC Advances, 2023).
Where two headings read alike, the source gives them in different places.

Legend:
[1] = system: A549 lung cancer cell lines; conditions: cited from earlier work
[2] = system: HCT-116 colon cancer cell line; assay: MTT cytotoxicity assay, HCT-116; conditions: Homo sapiens, HCT-116, read-out: In vitro cytotoxicity IC50, HCT-116
[3] = system: MCF-7 breast cancer cell line; assay: MTT cytotoxicity assay, MCF-7; conditions: Homo sapiens, MCF7, read-out: In vitro cytotoxicity IC50, MCF-7
[4] = system: HePG2 liver cancer cell line; assay: MTT cytotoxicity assay, HePG2; type: cell-based; conditions: Homo sapiens, HepG2, read-out: In vitro cytotoxicity IC50, HePG2
[5] = biological target: EGFR TK (Homo sapiens, UniProt P00533); assay: EGFR kinase inhibition assay; type: biochemical
Chain of EGFR TK (P00533 25-1210): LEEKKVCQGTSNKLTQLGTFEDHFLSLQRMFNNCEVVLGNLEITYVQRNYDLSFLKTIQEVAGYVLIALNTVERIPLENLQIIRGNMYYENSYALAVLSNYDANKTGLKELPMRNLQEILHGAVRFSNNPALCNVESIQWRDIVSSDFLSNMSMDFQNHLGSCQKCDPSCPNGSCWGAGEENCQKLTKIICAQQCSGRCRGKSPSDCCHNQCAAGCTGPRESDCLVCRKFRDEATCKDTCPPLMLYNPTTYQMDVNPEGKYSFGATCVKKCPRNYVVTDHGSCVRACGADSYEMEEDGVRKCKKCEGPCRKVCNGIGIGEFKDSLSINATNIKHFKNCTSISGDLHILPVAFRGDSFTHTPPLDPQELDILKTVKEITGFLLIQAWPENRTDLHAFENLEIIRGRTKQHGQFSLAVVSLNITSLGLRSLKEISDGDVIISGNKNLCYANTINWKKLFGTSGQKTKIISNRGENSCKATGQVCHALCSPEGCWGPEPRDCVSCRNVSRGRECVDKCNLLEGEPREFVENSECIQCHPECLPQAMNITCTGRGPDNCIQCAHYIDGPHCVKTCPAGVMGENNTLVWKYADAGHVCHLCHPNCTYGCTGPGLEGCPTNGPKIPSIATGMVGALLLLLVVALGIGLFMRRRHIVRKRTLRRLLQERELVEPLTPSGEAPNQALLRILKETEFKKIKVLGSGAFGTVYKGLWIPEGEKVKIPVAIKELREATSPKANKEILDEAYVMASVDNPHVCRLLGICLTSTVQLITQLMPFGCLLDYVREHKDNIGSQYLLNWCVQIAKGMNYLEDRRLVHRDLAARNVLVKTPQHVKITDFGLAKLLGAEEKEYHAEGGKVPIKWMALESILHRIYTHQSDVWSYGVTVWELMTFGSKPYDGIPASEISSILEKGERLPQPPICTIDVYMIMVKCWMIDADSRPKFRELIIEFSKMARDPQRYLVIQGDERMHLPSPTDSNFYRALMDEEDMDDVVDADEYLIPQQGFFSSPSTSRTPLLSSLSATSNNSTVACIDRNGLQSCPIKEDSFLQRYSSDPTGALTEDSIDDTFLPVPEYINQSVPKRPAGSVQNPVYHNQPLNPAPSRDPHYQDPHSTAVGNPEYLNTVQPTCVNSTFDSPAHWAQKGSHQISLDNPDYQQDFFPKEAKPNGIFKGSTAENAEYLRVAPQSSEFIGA

[6] = system: HePG-2, HCT-116, and MCF-7 cell lines; assay: MTT cytotoxicity, range over the three cell lines; type: cell-based; conditions: 144 h, read-out: IC50 values ranging over HePG-2, HCT-116, and MCF-7 cell lines
[7] = system: P-gp in HepG-2/ADR cells; assay: Quantitative real-time PCR for P-glycoprotein; type: cell-based, human; conditions: 72 h, control HepG2 = 1
[8] = biological target: CDK-2 (Homo sapiens, UniProt P24941); assay: CDK-2 kinase inhibition assay; type: biochemical
[9] = system: HCT-116 cells; assay: Cell cycle analysis by flow cytometry; type: cell-based; conditions: HCT-116, 6o at IC50 (5.84 μM); control 42.94%
[10] = system: HCT-116 cells; assay: Annexin V-FITC/PI apoptosis assay; type: cell-based; conditions: HCT-116, 6o at IC50
[11] = system: leukemia L1210 cells; conditions: read-out: IC50 against leukemia L1210 cells; cited from earlier work
[12] = system: breast cancer cell line (MCF-7); conditions: read-out: IC50 on breast cancer cell line (MCF-7); cited from earlier work

Structure (SMILES)	IC50 [2]	IC50 [3]	IC50 [4]	further results
O=c1[nH]cc(F)c(=O)[nH]1 [5-fluorouracil]				IC50 ([1]; read-out: IC50 against A549 lung cancer cell lines): < 5 µM
N#Cc1c(N2C(=O)c3ccc(F)cc3C2=O)c(C(=O)Nc2ccccc2)n2c1CCC2 [Compound 6a, 7-Cyano-6-(5-fluoro-1,3-dioxoisoindolin-2-yl)-N-phenyl-2,3-dihydro-1H-pyrrolizine-5-carboxamide]	> 100 µM	93.5 ± 4.7 µM	85.1 ± 4.1 µM	
Cc1ccc(NC(=O)c2c(N3C(=O)c4ccc(F)cc4C3=O)c(C#N)c3n2CCC3)cc1 [Compound 6b, 7-Cyano-6-(5-fluoro-1,3-dioxoisoindolin-2-yl)-N-(p-tolyl)-2,3-dihydro-1H-pyrrolizine-5-carboxamide]	66.3 ± 3.1 µM	58.1 ± 3.3 µM	55.4 ± 3.2 µM	
N#Cc1c(N2C(=O)c3ccccc3C2=O)c(C(=O)Nc2ccc(F)cc2)n2c1CCC2 [Compound 6c, 7-Cyano-6-(1,3-dioxoisoindolin-2-yl)-N-(4-fluorophenyl)-2,3-dihydro-1H-pyrrolizine-5-carboxamide]	47.9 ± 2.6 µM	54.6 ± 3.1 µM	49.1 ± 2.9 µM	
N#Cc1c(N2C(=O)c3ccc(F)cc3C2=O)c(C(=O)Nc2ccc(F)cc2)n2c1CCC2 [Compound 6d, 7-Cyano-6-(5-fluoro-1,3-dioxoisoindolin-2-yl)-N-(4-fluorophenyl)-2,3-dihydro-1H-pyrrolizine-5-carboxamide]	9.49 ± 0.6 µM	13.9 ± 0.9 µM	7.97 ± 0.5 µM	IC50 [5]: 362 ± 8 nM; IC50 [6]: 6.02 to 13.9 µM; P-gp RT-PCR fold change [7]: 0.4097 fold
COc1ccc(NC(=O)c2c(N3C(=O)c4ccccc4C3=O)c(C#N)c3n2CCC3)cc1 [Compound 6e, 7-Cyano-6-(1,3-dioxoisoindolin-2-yl)-N-(4-methoxyphenyl)-2,3-dihydro-1H-pyrrolizine-5-carboxamide]	38.1 ± 2.4 µM	42.7 ± 2.5 µM	45.4 ± 2.5 µM	
COc1ccc(NC(=O)c2c(N3C(=O)c4ccc(F)cc4C3=O)c(C#N)c3n2CCC3)cc1 [Compound 6f, 7-Cyano-6-(5-fluoro-1,3-dioxoisoindolin-2-yl)-N-(4-methoxyphenyl)-2,3-dihydro-1H-pyrrolizine-5-carboxamide]	> 100 µM	> 100 µM	88.3 ± 4.3 µM	
N#Cc1c(N2C(=O)c3ccc(F)cc3C2=O)c(C(=O)Nc2ccc(Cl)cc2)n2c1CCC2 [Compound 6g, N-(4-Chlorophenyl)-7-cyano-6-(5-fluoro-1,3-dioxoisoindolin-2-yl)-2,3-dihydro-1H-pyrrolizine-5-carboxamide]	60.2 ± 3.3 µM	69.4 ± 3.7 µM	52 ± 2.8 µM	
N#Cc1c(N2C(=O)c3ccccc3C2=O)c(C(=O)Nc2ccc(Br)cc2)n2c1CCC2 [Compound 6h, N-(4-Bromophenyl)-7-cyano-6-(1,3-dioxoisoindolin-2-yl)-2,3-dihydro-1H-pyrrolizine-5-carboxamide]	> 100 µM	> 100 µM	91.4 ± 4.8 µM	
N#Cc1c(N2C(=O)c3ccc(F)cc3C2=O)c(C(=O)Nc2ccc(Br)cc2)n2c1CCC2 [Compound 6i, N-(4-Bromophenyl)-7-cyano-6-(5-fluoro-1,3-dioxoisoindolin-2-yl)-2,3-dihydro-1H-pyrrolizine-5-carboxamide]	14.3 ± 1.1 µM	25.3 ± 2 µM	20.4 ± 1.5 µM	
N#Cc1c(N2C(=O)c3ccccc3C2=O)c(C(=O)Nc2ccccc2)n2c1CCCC2 [Compound 6j, 1-Cyano-2-(1,3-dioxoisoindolin-2-yl)-N-phenyl-5,6,7,8-tetrahydroindolizine-3-carboxamide]	22.1 ± 1.6 µM	31.3 ± 2.3 µM	34.1 ± 1.9 µM	
N#Cc1c(N2C(=O)c3ccc(F)cc3C2=O)c(C(=O)Nc2ccccc2)n2c1CCCC2 [Compound 6k, 1-Cyano-2-(5-fluoro-1,3-dioxoisoindolin-2-yl)-N-phenyl-5,6,7,8-tetrahydroindolizine-3-carboxamide]	83.7 ± 4 µM	80.6 ± 4.1 µM	78.2 ± 3.8 µM	
Cc1ccc(NC(=O)c2c(N3C(=O)c4ccccc4C3=O)c(C#N)c3n2CCCC3)cc1 [Compound 6l, 1-Cyano-2-(1,3-dioxoisoindolin-2-yl)-N-(p-tolyl)-5,6,7,8-tetrahydroindolizine-3-carboxamide]	57.5 ± 3.1 µM	63.2 ± 3.5 µM	61.6 ± 3.5 µM	
Cc1ccc(NC(=O)c2c(N3C(=O)c4ccc(F)cc4C3=O)c(C#N)c3n2CCCC3)cc1 [Compound 6m, 1-Cyano-2-(5-fluoro-1,3-dioxoisoindolin-2-yl)-N-(p-tolyl)-5,6,7,8-tetrahydroindolizine-3-carboxamide]	28.4 ± 1.9 µM	19.9 ± 1.4 µM	12 ± 0.8 µM	IC50 [8]: 402 ± 86 nM; IC50 [5]: 130 ± 11 nM; P-gp RT-PCR fold change [7]: 0.6754 fold
N#Cc1c(N2C(=O)c3ccccc3C2=O)c(C(=O)Nc2ccc(F)cc2)n2c1CCCC2 [Compound 6n, 1-Cyano-2-(1,3-dioxoisoindolin-2-yl)-N-(4-fluorophenyl)-5,6,7,8-tetrahydroindolizine-3-carboxamide]	71.3 ± 3.5 µM	75.8 ± 3.9 µM	65.4 ± 3.7 µM	
N#Cc1c(N2C(=O)c3ccc(F)cc3C2=O)c(C(=O)Nc2ccc(F)cc2)n2c1CCCC2 [Compound 6o, 1-Cyano-2-(5-fluoro-1,3-dioxoisoindolin-2-yl)-N-(4-fluorophenyl)-5,6,7,8-tetrahydroindolizine-3-carboxamide]	5.84 ± 0.2 µM	8.89 ± 0.5 µM	6.02 ± 0.3 µM	IC50 [8]: 118 ± 16 nM; IC50 [5]: 62 ± 3 nM; Cells in G1 phase [9]: 48.75%; IC50 [6]: 6.02 to 13.9 µM; P-gp RT-PCR fold change [7]: 0.2732 fold; Late cellular apoptosis ([10]; DMSO control 0.16%, upper right quadrant): 26.51%; Early cellular apoptosis ([10]; DMSO control 0.52%, lower right quadrant): 15.16%; Total cellular apoptosis ([10]; DMSO control 2.61%): 49.16%
COc1ccc(NC(=O)c2c(N3C(=O)c4ccccc4C3=O)c(C#N)c3n2CCCC3)cc1 [Compound 6p, 1-Cyano-2-(1,3-dioxoisoindolin-2-yl)-N-(4-methoxyphenyl)-5,6,7,8-tetrahydroindolizine-3-carboxamide]	79.6 ± 3.7 µM	86.9 ± 4.3 µM	73.3 ± 3.9 µM	
COc1ccc(NC(=O)c2c(N3C(=O)c4ccc(F)cc4C3=O)c(C#N)c3n2CCCC3)cc1 [Compound 6q, 1-Cyano-2-(5-fluoro-1,3-dioxoisoindolin-2-yl)-N-(4-methoxyphenyl)-5,6,7,8-tetrahydroindolizine-3-carboxamide]	32.2 ± 2.2 µM	37.4 ± 2.6 µM	41.2 ± 2.3 µM	
COc1cccc2c1C(=O)c1c(O)c3c(c(O)c1C2=O)C[C@@](O)(C(=O)CO)C[C@@H]3O[C@H]1C[C@H](N)[C@H](O)[C@H](C)O1 [DOX, Doxorubicin, reference compound]			4.5 ± 0.2 µM	
O=C(c1ccccc1)c1ccc2n1CCC2C(=O)O (centres unmarked) [Ketorolac]				IC50 ([1]; read-out: IC50 against lung cancer cell lines A549): ~13 µM
COc1ccc(-c2csc3c2-n2cccc2C3=O)cc1O [MR22388]				IC50 [11]: 15 nM
CC/C(=C(\c1ccccc1)c1ccc(OCCN(C)C)cc1)c1ccccc1 [Tamoxifen, reference compound]				P-gp RT-PCR fold change [7]: 0.2176 fold
CC1(C)Cc2c(-c3ccccc3)c(-c3ccc(Cl)cc3)c(CC(=O)O)n2C1 [licofelone]				IC50 [12]: 5.5 µM
